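A five-concentration, 48-hour dose response in 96-well plates underlies each endpoint, interpolated linearly between surrounding concentrations. At the GI50, growth is halved.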 Activity calls are given as the source filed them. Cut-off read from the data, not from the text of the source: active = GI50 up to about 1.1 µM and inactive = higher.

This note sets out measurements from ChEMBL document CHEMBL1201862, “PubChem BioAssay data set” (2004).

Among the test systems are SK-MEL-28; RXF 393; OVCAR-8; EKVX; SR; SNB-19; SNB-75; SK-MEL-2; NCI-H23; NCI-H226; UACC-62; HL-60; SF-295; NCI-H522; MOLT-4; Malme-3M; RPMI-8226.
Holding throughout (test): NCI-60 cell line screen, 48 h

Consider `OCC(O)CNc1ccnc2cc(Cl)ccc12` (stereo unspecified), for which the GI50 in the test on SK-MEL-28, in the test with RXF 393, in the test with OVCAR-8, with EKVX, with SR and in the test with SNB-19 was > 100 µM (inactive) in each case. Also, the GI50 in the test on SNB-75, in the test on SK-MEL-2, in the test with NCI-H23, in the test on NCI-H226, with UACC-62 and in the test with HL-60 was > 100 µM (inactive) each time. The GI50 with SF-295, in the test with NCI-H522, with MOLT-4, in the test on Malme-3M and with RPMI-8226 was > 100 µM (inactive) each time.

`O=C(c1ccccc1)C(C(=O)c1ccccc1)C1(O)C(=O)c2ccccc2C1=O`: the GI50 was 3.6 µM (inactive) with SK-MEL-28; 0.253 µM (active) in the test with RXF 393; 25.6 µM (inactive) in the test with OVCAR-8; 32.5 µM (inactive) in the test with EKVX; 29.1 µM (inactive) in the test on SR; 37.3 µM (inactive) in the test on SNB-19. Moreover, the GI50 was 24.8 µM (inactive) with SNB-75; 6.17 µM (inactive) with SK-MEL-2; 28.6 µM (inactive) with NCI-H23; 37.1 µM (inactive) in the test on NCI-H226; 32.6 µM (inactive) with UACC-62; 16.7 µM (inactive) in the test with HL-60. Besides, the GI50 in the test with SF-295 is 28.2 µM (inactive); in the test with NCI-H522 it was 14.1 µM (inactive); in the test on MOLT-4, 19.8 µM (inactive); with Malme-3M it was 24.2 µM (inactive); in the test on RPMI-8226 it was 31.1 µM (inactive).

Take `COc1ccc(/C=C/C(=O)c2sc(-n3nc(-c4ccccc4)cc3-c3ccccc3)nc2C)cc1`: the GI50 with SK-MEL-28 is > 10 µM (inactive); in the test with RXF 393, > 10 µM (inactive); with OVCAR-8, > 10 µM (inactive); in the test with EKVX, 6.25 µM (inactive); with SR, > 10 µM (inactive); in the test with SNB-19, > 10 µM (inactive). Also, the GI50 is 8.43 µM (inactive) in the test on SNB-75; > 10 µM (inactive) in the test with SK-MEL-2; > 10 µM (inactive) in the test on NCI-H23; > 10 µM (inactive) in the test on NCI-H226; > 10 µM (inactive) in the test with UACC-62; > 10 µM (inactive) in the test with HL-60. Besides, the GI50 with SF-295 was > 10 µM (inactive); in the test with NCI-H522 it was 63.1 µM (inactive); in the test on MOLT-4, 56.6 µM (inactive); in the test on Malme-3M, > 10 µM (inactive); in the test with RPMI-8226, 39.7 µM (inactive).

For the compound `COc1cccc(/C=C2\N=C(Cl)OC2=O)c1O`, the GI50 in the test with SK-MEL-28 is > 100 µM (inactive); in the test on RXF 393, > 100 µM (inactive); in the test on OVCAR-8 it was > 100 µM (inactive); with EKVX, > 100 µM (inactive); in the test with SR it was > 88.9 µM (inactive); in the test on SNB-19 it was > 100 µM (inactive). Further, the GI50 in the test on SNB-75 was 30.5 µM (inactive); with SK-MEL-2, > 100 µM (inactive); with NCI-H23 it was > 100 µM (inactive); in the test with NCI-H226, > 100 µM (inactive); in the test on UACC-62 it was > 100 µM (inactive); in the test on HL-60, > 100 µM (inactive). Moreover, the GI50 was > 100 µM (inactive) with SF-295; > 100 µM (inactive) in the test on NCI-H522; > 100 µM (inactive) in the test on MOLT-4; > 100 µM (inactive) in the test on Malme-3M; > 73.5 µM (inactive) in the test on RPMI-8226.

With `Nc1ccc(C(=O)NN2C(=O)C(Cl)C2c2cc(Br)cc(Br)c2O)cc1` (stereo unspecified), the GI50 in the test with SK-MEL-28 was 22.9 µM (inactive); with RXF 393, 13.3 µM (inactive); in the test with OVCAR-8, 14.7 µM (inactive); in the test with EKVX, 4.62 µM (inactive); with SR it was 24.3 µM (inactive); with SNB-19, 34.1 µM (inactive). Besides, the GI50 in the test with SNB-75 is 18 µM (inactive); in the test on SK-MEL-2, 10.6 µM (inactive); in the test on NCI-H23 it was 12.4 µM (inactive); in the test with NCI-H226, 5.82 µM (inactive); in the test with UACC-62 it was 4.44 µM (inactive); in the test with HL-60, 1.31 µM (inactive). The GI50 was 10.3 µM (inactive) in the test with SF-295; 6.75 µM (inactive) in the test with NCI-H522; 4.89 µM (inactive) with MOLT-4; 17.3 µM (inactive) in the test on Malme-3M; > 100 µM (inactive) with RPMI-8226.

In the case of `O=C(NCc1cccnc1)C1COc2cc(-c3cc(=O)c4ccccc4o3)ccc2O1` (stereo unspecified), the GI50 was 3.49 µM (inactive) with SK-MEL-28; 28.7 µM (inactive) with RXF 393; 3.64 µM (inactive) with OVCAR-8; > 81.5 µM (inactive) with EKVX; 5.46 µM (inactive) in the test with SR; 19.8 µM (inactive) in the test on SNB-19. In addition, the GI50 in the test on SNB-75 is 3.49 µM (inactive); in the test with SK-MEL-2 it was 3.4 µM (inactive); in the test on NCI-H23 it was 13.6 µM (inactive); in the test on NCI-H226, 3.62 µM (inactive); in the test on UACC-62, 30.4 µM (inactive); in the test with HL-60, > 46.5 µM (inactive). Moreover, the GI50 in the test with SF-295 was 7.6 µM (inactive); in the test on NCI-H522, 10.7 µM (inactive); in the test on MOLT-4, 5.14 µM (inactive); in the test with Malme-3M, > 64.6 µM (inactive); in the test on RPMI-8226, > 100 µM (inactive).

As to `Cc1cc(Cl)ccc1NC(=O)CC/C(CC(=O)C(C)C)=N\NC(=O)C[n+]1ccccc1`, the GI50 in the test on SK-MEL-28, in the test with RXF 393, in the test on OVCAR-8, with EKVX, with SR and in the test with SNB-19 was > 100 µM (inactive) each time. In addition, the GI50 in the test on SNB-75, with SK-MEL-2, in the test with NCI-H23, in the test with NCI-H226, in the test with UACC-62 and in the test with HL-60 was > 100 µM (inactive) each time. In addition, the GI50 with SF-295, in the test on NCI-H522, with MOLT-4, in the test on Malme-3M and in the test with RPMI-8226 was > 100 µM (inactive) throughout.

With `CCOC(=O)C(/N=N\c1ccc(S(N)(=O)=O)cc1)C(C)=O` (stereo unspecified), the GI50 in the test on SK-MEL-28, in the test on RXF 393, in the test on OVCAR-8, in the test on EKVX, with SR and in the test with SNB-19 was > 100 µM (inactive) in each case. Also, the GI50 in the test with SNB-75, in the test on SK-MEL-2, with NCI-H23, in the test with NCI-H226, in the test with UACC-62 and with HL-60 was > 100 µM (inactive) each time. Moreover, the GI50 with SF-295, in the test with NCI-H522, in the test on MOLT-4, in the test with Malme-3M and with RPMI-8226 was > 100 µM (inactive) in each case.
